System: Rattus norvegicus
Assay: Hypotensive activity by intravenous administration to rats
Type: functional

SMILES: Cc1cccc(C)c1N=C1NCCN1
- Log 1/ED50: 0.85

SMILES: c1ccc(NC2=NCCN2)cc1
- Log 1/ED50: -2.1

SMILES: Fc1cccc(F)c1N=C1NCCN1
- Log 1/ED50: -0.41

SMILES: Cc1ccccc1N=C1NCCN1
- Log 1/ED50: -0.67

SMILES: Clc1ccccc1N=C1NCCN1
- Log 1/ED50: 0.13

SMILES: Clc1cccc(Cl)c1NC1=NCCN1 [CLONIDINE]
- Log 1/ED50: 1.99

SMILES: c1cc2c(c(NC3=NCCN3)c1)CCCC2 [TRAMAZOLINE]
- Log 1/ED50: 0.47
